# According to ChEMBL document CHEMBL4382234, “Fluoroquinolone-isatin hybrids and their biological activities” (Eur J Med Chem, 2019):
# Test system: Mycobacterium tuberculosis
# Assay: Antimycobacterial activity against multidrug-resistant Mycobacterium tuberculosis 09710 by rapid direct susceptibility test
# Assay type: functional
row,SMILES,MIC [µg/mL]
1,CO/N=C1\C(=O)N(CN2CCC[C@H]3CN(c4c(F)cc5c(=O)c(C(=O)O)cn(C6CC6)c5c4OC)C[C@H]32)c2ccccc21,0.39 to 16
2,COc1c(N2C[C@@H]3CCCN(CN4C(=O)/C(=N\NC(N)=S)c5cc(F)ccc54)[C@@H]3C2)c(F)cc2c(=O)c(C(=O)O)cn(C3CC3)c12,0.39 to 16
3,CCO/N=C1\C(=O)N(CCN2CCC[C@H]3CN(c4c(F)cc5c(=O)c(C(=O)O)cn(C6CC6)c5c4OC)C[C@H]32)c2ccccc21,0.39 to 16
4,CCO/N=C1\C(=O)N(CCN2CCC[C@H]3CN(c4c(F)cc5c(=O)c(C(=O)O)cn(C6CC6)c5c4OC)C[C@H]32)c2ccc(F)cc21,0.39 to 16
5,COc1c(N2C[C@@H]3CCCN(CCN4C(=O)/C(=N\NC(N)=O)c5cc(F)ccc54)[C@@H]3C2)c(F)cc2c(=O)c(C(=O)O)cn(C3CC3)c12,0.39 to 16
6,CCO/N=C1\C(=O)N(CN2CCC[C@H]3CN(c4c(F)cc5c(=O)c(C(=O)O)cn(C6CC6)c5c4OC)C[C@H]32)c2ccc(F)cc21,0.39 to 16
7,COc1c(N2C[C@@H]3CCCN(CN4C(=O)/C(=N\NC(N)=O)c5ccccc54)[C@@H]3C2)c(F)cc2c(=O)c(C(=O)O)cn(C3CC3)c12,0.39 to 16
8,CO/N=C1\C(=O)N(CCN2CCC[C@H]3CN(c4c(F)cc5c(=O)c(C(=O)O)cn(C6CC6)c5c4OC)C[C@H]32)c2ccccc21,0.39 to 16
9,COc1c(N2C[C@@H]3CCCN(CCN4C(=O)/C(=N\O)c5ccccc54)[C@@H]3C2)c(F)cc2c(=O)c(C(=O)O)cn(C3CC3)c12,0.39 to 16
10,COc1c(N2C[C@@H]3CCCN(CCN4C(=O)C(=O)c5ccccc54)[C@@H]3C2)c(F)cc2c(=O)c(C(=O)O)cn(C3CC3)c12,0.39 to 16
11,COc1c(N2C[C@@H]3CCCN(CCN4C(=O)/C(=N\O)c5cc(F)ccc54)[C@@H]3C2)c(F)cc2c(=O)c(C(=O)O)cn(C3CC3)c12,0.39 to 16
12,COc1c(N2C[C@@H]3CCCN[C@@H]3C2)c(F)cc2c(=O)c(C(=O)O)cn(C3CC3)c12 [MOXIFLOXACIN],0.1 to 1
13,COc1c(N2C[C@@H]3CCCN(CCN4C(=O)/C(=N\NC(N)=O)c5ccccc54)[C@@H]3C2)c(F)cc2c(=O)c(C(=O)O)cn(C3CC3)c12,0.39 to 16
14,COc1c(N2C[C@@H]3CCCN(CN4C(=O)C(=O)c5cc(F)ccc54)[C@@H]3C2)c(F)cc2c(=O)c(C(=O)O)cn(C3CC3)c12,0.39 to 16
15,COc1c(N2C[C@@H]3CCCN(CN4C(=O)/C(=N\NC(N)=O)c5cc(F)ccc54)[C@@H]3C2)c(F)cc2c(=O)c(C(=O)O)cn(C3CC3)c12,0.39 to 16
16,CO/N=C1\C(=O)N(CN2CCC[C@H]3CN(c4c(F)cc5c(=O)c(C(=O)O)cn(C6CC6)c5c4OC)C[C@H]32)c2ccc(F)cc21,0.39 to 16
17,COc1c(N2C[C@@H]3CCCN(CN4C(=O)/C(=N\O)c5cc(F)ccc54)[C@@H]3C2)c(F)cc2c(=O)c(C(=O)O)cn(C3CC3)c12,0.39 to 16
18,CCO/N=C1\C(=O)N(CN2CCC[C@H]3CN(c4c(F)cc5c(=O)c(C(=O)O)cn(C6CC6)c5c4OC)C[C@H]32)c2ccccc21,0.39 to 16
19,COc1c(N2C[C@@H]3CCCN(CCN4C(=O)/C(=N\NC(N)=S)c5cc(F)ccc54)[C@@H]3C2)c(F)cc2c(=O)c(C(=O)O)cn(C3CC3)c12,0.39 to 16
20,CO/N=C1\C(=O)N(CCN2CCC[C@H]3CN(c4c(F)cc5c(=O)c(C(=O)O)cn(C6CC6)c5c4OC)C[C@H]32)c2cc(F)ccc21,0.39 to 16
21,COc1c(N2C[C@@H]3CCCN(CN4C(=O)/C(=N\NC(N)=S)c5ccccc54)[C@@H]3C2)c(F)cc2c(=O)c(C(=O)O)cn(C3CC3)c12,0.39 to 16
22,COc1c(N2C[C@@H]3CCCN(CN4C(=O)/C(=N\O)c5ccccc54)[C@@H]3C2)c(F)cc2c(=O)c(C(=O)O)cn(C3CC3)c12,0.39 to 16
23,COc1c(N2C[C@@H]3CCCN(CN4C(=O)C(=O)c5ccccc54)[C@@H]3C2)c(F)cc2c(=O)c(C(=O)O)cn(C3CC3)c12,0.39 to 16
24,COc1c(N2C[C@@H]3CCCN(CCN4C(=O)/C(=N\NC(N)=S)c5ccccc54)[C@@H]3C2)c(F)cc2c(=O)c(C(=O)O)cn(C3CC3)c12,0.39 to 16
25,COc1c(N2C[C@@H]3CCCN(CCN4C(=O)C(=O)c5cc(F)ccc54)[C@@H]3C2)c(F)cc2c(=O)c(C(=O)O)cn(C3CC3)c12,0.39 to 16

# Test system: Mycobacterium tuberculosis
# Assay: Antimycobacterial activity against isoniazid/rifampicin/ethambutol-resistant Mycobacterium tuberculosis after 3 to 7 days by rapid direct susceptibility test
# Assay type: functional
row,SMILES,MIC [µg/mL]
1,Cc1ccc2c(c1)/C(=N\O)C(=O)N2CCCN1CCN(c2cc3c(cc2F)c(=O)c(C(=O)O)cn3C2CC2)CC1,0.1 to 64
2,Cc1ccc2c(c1)/C(=N\NC(N)=S)C(=O)N2CCCN1CCN(c2cc3c(cc2F)c(=O)c(C(=O)O)cn3C2CC2)CC1,0.1 to 64
3,NC(=O)N/N=C1/C(=O)N(CCCN2CCN(c3cc4c(cc3F)c(=O)c(C(=O)O)cn4C3CC3)CC2)c2ccccc21,0.1 to 64
4,Cc1ccc2c(c1)/C(=N\NC(N)=O)C(=O)N2CCCN1CCN(c2cc3c(cc2F)c(=O)c(C(=O)O)cn3C2CC2)CC1,0.1 to 64
5,O=C(O)c1cn(C2CC2)c2cc(N3CCN(CCCN4C(=O)/C(=N/O)c5ccccc54)CC3)c(F)cc2c1=O,0.1 to 64
6,NC(=S)N/N=C1/C(=O)N(CCCN2CCN(c3cc4c(cc3F)c(=O)c(C(=O)O)cn4C3CC3)CC2)c2ccccc21,0.1 to 64

# Test system: Mycobacterium tuberculosis
# Assay: Antimycobacterial activity against multidrug-resistant Mycobacterium tuberculosis after 3 to 7 days by rapid direct susceptibility test
# Assay type: functional
row,SMILES,MIC [µg/mL]
1,CO/N=C1/C(=O)N(CCn2cc(CN3CCC[C@H]4CN(c5c(F)cc6c(=O)c(C(=O)O)cn(C7CC7)c6c5OC)C[C@H]43)nn2)c2ccc(Br)cc21,0.1 to 0.78
2,COc1c(N2C[C@@H]3CCCN(Cc4cn(CCN5C(=O)/C(=N/NC(N)=O)c6ccccc65)nn4)[C@@H]3C2)c(F)cc2c(=O)c(C(=O)O)cn(C3CC3)c12,0.1 to 0.78
3,NNC(=O)c1ccncc1 [ISONIAZID],> 128
4,CO/N=C1/C(=O)N(CCCN2CCN(c3c(F)cc4c(=O)c(C(=O)O)cn(C5CC5)c4c3OC)CC2C)c2ccc(F)cc21 (centres undefined),0.25
5,COc1c(N2C[C@@H]3CCCN(Cc4cn(CCN5C(=O)C(=O)c6ccccc65)nn4)[C@@H]3C2)c(F)cc2c(=O)c(C(=O)O)cn(C3CC3)c12,0.1 to 0.78
6,COc1c(N2C[C@@H]3CCCN(Cc4cn(CCN5C(=O)/C(=N/O)c6cc(Br)ccc65)nn4)[C@@H]3C2)c(F)cc2c(=O)c(C(=O)O)cn(C3CC3)c12,0.1 to 0.78
7,COc1c(N2C[C@@H]3CCCN(Cc4cn(CCN5C(=O)C(=O)c6cc(Br)ccc65)nn4)[C@@H]3C2)c(F)cc2c(=O)c(C(=O)O)cn(C3CC3)c12,0.1 to 0.78
8,COc1c(N2C[C@@H]3CCCN[C@@H]3C2)c(F)cc2c(=O)c(C(=O)O)cn(C3CC3)c12 [MOXIFLOXACIN],0.12
9,COc1c(N2C[C@@H]3CCCN(Cc4cn(CCN5C(=O)/C(=N/NC(N)=O)c6cc(Br)ccc65)nn4)[C@@H]3C2)c(F)cc2c(=O)c(C(=O)O)cn(C3CC3)c12,0.1 to 0.78
10,CO/N=C1/C(=O)N(CCn2cc(CN3CCC[C@H]4CN(c5c(F)cc6c(=O)c(C(=O)O)cn(C7CC7)c6c5OC)C[C@H]43)nn2)c2ccccc21,0.1 to 0.78
11,CCO/N=C1/C(=O)N(CCn2cc(CN3CCC[C@H]4CN(c5c(F)cc6c(=O)c(C(=O)O)cn(C7CC7)c6c5OC)C[C@H]43)nn2)c2ccccc21,0.1 to 0.78
12,CO[C@H]1/C=C/O[C@@]2(C)Oc3c(C)c(O)c4c(O)c(c(/C=N/N5CCN(C)CC5)c(O)c4c3C2=O)NC(=O)/C(C)=C\C=C\[C@H](C)[C@H](O)[C@@H](C)[C@@H](O)[C@@H](C)[C@H](OC(C)=O)[C@@H]1C [RIFAMPIN],32 to 64
13,COc1c(N2CCNC(C)C2)c(F)cc2c(=O)c(C(=O)O)cn(C3CC3)c12 (centres undefined) [GATIFLOXACIN],1
14,CCO/N=C1/C(=O)N(CCn2cc(CN3CCC[C@H]4CN(c5c(F)cc6c(=O)c(C(=O)O)cn(C7CC7)c6c5OC)C[C@H]43)nn2)c2ccc(Br)cc21,0.1 to 0.78
15,COc1c(N2C[C@@H]3CCCN(Cc4cn(CCN5C(=O)/C(=N/O)c6ccccc65)nn4)[C@@H]3C2)c(F)cc2c(=O)c(C(=O)O)cn(C3CC3)c12,0.1 to 0.78

# Test system: Mycobacterium tuberculosis
# Assay: Potency index, ratio of gatifloxacin MIC to test compound MIC for multidrug-resistant Mycobacterium tuberculosis
# Assay type: functional
row,SMILES,Ratio
1,CO/N=C1/C(=O)N(CCCN2CCN(c3c(F)cc4c(=O)c(C(=O)O)cn(C5CC5)c4c3OC)CC2C)c2ccc(F)cc21 (centres undefined),>=4 - 512

# Test system: Mycobacterium tuberculosis
# Assay: Potency index, ratio of rifampicin MIC to test compound MIC for multidrug-resistant Mycobacterium tuberculosis
# Assay type: functional
row,SMILES,Ratio
1,CO/N=C1/C(=O)N(CCCN2CCN(c3c(F)cc4c(=O)c(C(=O)O)cn(C5CC5)c4c3OC)CC2C)c2ccc(F)cc21 (centres undefined),>=4 - 512

# Test system: Mycobacterium tuberculosis
# Assay: Potency index, ratio of isoniazid MIC to test compound MIC for multidrug-resistant Mycobacterium tuberculosis
# Assay type: functional
row,SMILES,Ratio
1,CO/N=C1/C(=O)N(CCCN2CCN(c3c(F)cc4c(=O)c(C(=O)O)cn(C5CC5)c4c3OC)CC2C)c2ccc(F)cc21 (centres undefined),>=4 - 512
